# Measurements as given in PMC9516332 (Frontiers in Oncology, 2022).
# Where two headings read alike, the source gives them in different places.
# Tests used:
# Assay in all cases: Kinase panel profiling at 1 µmol/L (MSA or IMAP), percentage inhibition
# Type in all cases: biochemical
# [1] = molecular target: panel of 255 wild-type kinases (Homo sapiens, UniProt P41240); conditions: read-out: %-inhibition at 1 µmol/L, CSK
# [2] = molecular target: panel of 255 wild-type kinases (Homo sapiens, UniProt Q16654); conditions: read-out: %-inhibition at 1 µmol/L, PDHK4
# [3] = molecular target: panel of 255 wild-type kinases (Homo sapiens, UniProt P14616); conditions: read-out: %-inhibition at 1 µmol/L, IRR
# [4] = molecular target: panel of 255 wild-type kinases (Homo sapiens, UniProt P08069); conditions: read-out: %-inhibition at 1 µmol/L, IGF1R
# [5] = molecular target: panel of 255 wild-type kinases (Homo sapiens, UniProt Q9NYA1); conditions: read-out: %-inhibition at 1 µmol/L, SPHK1
# [6] = molecular target: panel of 255 wild-type kinases (Homo sapiens, UniProt Q9H4B4); conditions: read-out: %-inhibition at 1 µmol/L, PLK3
# [7] = molecular target: T1, panel of 255 wild-type kinases (Homo sapiens, UniProt O15264); conditions: read-out: %-inhibition, p38δ
# T1 sequence (O15264 1-365): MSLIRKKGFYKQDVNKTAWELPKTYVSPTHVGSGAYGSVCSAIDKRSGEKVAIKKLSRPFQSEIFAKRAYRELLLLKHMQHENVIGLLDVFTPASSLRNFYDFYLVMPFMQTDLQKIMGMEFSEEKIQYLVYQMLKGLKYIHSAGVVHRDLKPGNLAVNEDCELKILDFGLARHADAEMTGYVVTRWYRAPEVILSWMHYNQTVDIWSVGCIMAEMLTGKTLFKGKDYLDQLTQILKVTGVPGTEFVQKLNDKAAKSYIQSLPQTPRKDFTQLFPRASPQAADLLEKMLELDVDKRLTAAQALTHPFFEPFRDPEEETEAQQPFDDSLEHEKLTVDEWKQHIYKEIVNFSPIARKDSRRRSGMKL
# [8] = molecular target: panel of 255 wild-type kinases (Homo sapiens, UniProt P51451); conditions: for inhibition at 1 µM: read-out: %-inhibition BLK
# [9] = molecular target: panel of 255 wild-type kinases (Homo sapiens, UniProt Q16288); conditions: read-out: %-inhibition at 1 µmol/L, TRKC
# [10] = molecular target: T2, panel of 255 wild-type kinases (Homo sapiens, UniProt Q05513); conditions: read-out: %-inhibition at 1 µmol/L, PKCζ
# T2 sequence (Q05513 1-592): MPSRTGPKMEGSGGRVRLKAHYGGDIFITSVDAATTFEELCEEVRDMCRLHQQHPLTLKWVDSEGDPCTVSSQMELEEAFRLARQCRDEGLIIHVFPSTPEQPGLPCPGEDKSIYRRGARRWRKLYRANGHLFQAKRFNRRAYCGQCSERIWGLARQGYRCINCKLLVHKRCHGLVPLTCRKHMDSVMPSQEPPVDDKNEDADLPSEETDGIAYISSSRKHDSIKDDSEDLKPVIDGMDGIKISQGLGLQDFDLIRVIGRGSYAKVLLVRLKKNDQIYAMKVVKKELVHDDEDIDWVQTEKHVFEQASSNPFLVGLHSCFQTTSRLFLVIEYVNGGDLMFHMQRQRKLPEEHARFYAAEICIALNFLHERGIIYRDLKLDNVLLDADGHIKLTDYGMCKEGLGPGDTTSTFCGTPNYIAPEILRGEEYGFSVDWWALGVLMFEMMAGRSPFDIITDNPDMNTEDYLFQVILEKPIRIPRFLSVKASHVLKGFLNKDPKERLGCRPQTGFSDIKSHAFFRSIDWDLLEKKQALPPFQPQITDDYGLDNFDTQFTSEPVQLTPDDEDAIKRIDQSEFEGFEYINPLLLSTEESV
# [11] = molecular target: T3, panel of 255 wild-type kinases (Homo sapiens, UniProt Q8TD19); conditions: read-out: %-inhibition, NEK9
# T3 sequence (Q8TD19 1-979): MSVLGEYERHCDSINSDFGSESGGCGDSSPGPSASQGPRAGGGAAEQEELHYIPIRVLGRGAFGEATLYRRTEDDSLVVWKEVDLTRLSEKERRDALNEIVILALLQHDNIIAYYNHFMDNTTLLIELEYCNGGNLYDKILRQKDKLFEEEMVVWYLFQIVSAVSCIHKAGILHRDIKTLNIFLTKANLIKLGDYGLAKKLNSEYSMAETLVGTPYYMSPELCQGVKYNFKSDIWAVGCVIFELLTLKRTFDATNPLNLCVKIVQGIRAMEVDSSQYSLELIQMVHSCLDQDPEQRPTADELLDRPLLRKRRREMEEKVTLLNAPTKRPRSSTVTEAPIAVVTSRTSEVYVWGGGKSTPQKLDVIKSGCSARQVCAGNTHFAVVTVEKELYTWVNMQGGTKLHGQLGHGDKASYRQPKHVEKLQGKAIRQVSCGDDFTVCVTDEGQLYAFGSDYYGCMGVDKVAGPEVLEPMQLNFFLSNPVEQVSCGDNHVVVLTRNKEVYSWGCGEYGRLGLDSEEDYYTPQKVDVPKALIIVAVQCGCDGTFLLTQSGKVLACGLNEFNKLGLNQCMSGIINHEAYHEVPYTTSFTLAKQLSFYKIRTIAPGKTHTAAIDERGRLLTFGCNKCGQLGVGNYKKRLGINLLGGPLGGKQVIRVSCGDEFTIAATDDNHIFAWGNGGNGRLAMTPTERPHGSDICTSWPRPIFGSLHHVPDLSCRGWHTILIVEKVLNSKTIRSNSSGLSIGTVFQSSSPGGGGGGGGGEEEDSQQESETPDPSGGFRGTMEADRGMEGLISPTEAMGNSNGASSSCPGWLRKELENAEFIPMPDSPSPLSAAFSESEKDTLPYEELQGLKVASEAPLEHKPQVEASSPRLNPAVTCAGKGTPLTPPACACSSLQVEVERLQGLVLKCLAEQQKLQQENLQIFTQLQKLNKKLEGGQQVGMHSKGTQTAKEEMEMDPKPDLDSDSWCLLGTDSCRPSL
# [12] = kinase CSK, 1 µmol/L single concentration
# [13] = kinase PDHK4, 1 µmol/L single concentration
# [14] = kinase IRR, 1 µmol/L single concentration
# [15] = kinase IGF1R, 1 µmol/L single concentration
# [16] = kinase SPHK1, 1 µmol/L single concentration
# [17] = kinase PLK3, 1 µmol/L single concentration
# [18] = p38δ, 1 µmol/L single concentration
# [19] = BLK kinase assay, 1 µmol/L single concentration
# [20] = kinase TRKC, 1 µmol/L single concentration
# [21] = kinase PKCζ, 1 µmol/L single concentration
# [22] = NEK9, 1 µmol/L single concentration
SMILES,"inhibition at 1 µM [1, 12]","inhibition at 1 µM [2, 13]","inhibition at 1 µM [3, 14]","inhibition at 1 µM [4, 15]","inhibition at 1 µM [5, 16]","inhibition at 1 µM [6, 17]","inhibition at 1 µM [7, 18]","inhibition at 1 µM [8, 19]","inhibition at 1 µM [9, 20]","inhibition at 1 µM [10, 21]","inhibition at 1 µM [11, 22]",also measured
Cc1nc(NC(=O)N2CCC[C@H]2C(N)=O)sc1-c1ccnc(C(C)(C)C(F)(F)F)c1 [alpelisib],-0.289%,0.0757%,7%,-0.261%,-5.44%,1.89%,-4.21%,-13%,2.52%,14%,2.8%,
Cn1cc(-c2cc3c(N4CCN(c5ncc([C@@](C)(N)c6ccc(F)cc6)cn5)CC4)ncnn3c2)cn1 [avapritinib],2.57%,5.61%,2.37%,3.41%,-1.72%,5.69%,0.654%,50%,57%,-0.226%,30%,
Cn1cnc2c(F)c(Nc3ccc(Br)cc3F)c(C(=O)NOCCO)cc21 [binimetinib],-1.11%,-0.429%,-5.48%,4.47%,-26%,-0.0416%,3.49%,10%,-0.843%,10%,-6.59%,
CNC(=O)c1ccc(-c2cnc3ncc(Cc4ccc5ncccc5c4)n3n2)cc1F [capmatinib],,,,,,,,,,,,inhibition at 1 µM [1]: -9%; inhibition at 1 µM [2]: 0.789%; inhibition at 1 µM [3]: 4%; inhibition at 1 µM [4]: 5.7%; inhibition at 1 µM [5]: -5.27%; inhibition at 1 µM [6]: 0.709%; inhibition at 1 µM [7]: -4%; inhibition at 1 µM [8]: -4%; inhibition at 1 µM [9]: 19%; inhibition at 1 µM [10]: 0.759%; inhibition at 1 µM [11]: -1.11%
COc1cc2ncnc(Nc3ccc(F)c(Cl)c3)c2cc1NC(=O)/C=C/CN1CCCCC1 [dacomitinib],18%,3%,6%,3.29%,-15%,3.6%,0.0743%,77%,-0.0882%,24%,-1.05%,
C[C@H](Nc1ncnc2nc[nH]c12)c1cc2cccc(Cl)c2c(=O)n1-c1ccccc1 [duvelisib],1.86%,3%,7%,1.51%,-3.25%,4.56%,-3%,-12%,2%,16%,1.7%,
COC(=O)N[C@@H](C)CNc1nccc(-c2cn(C(C)C)nc2-c2cc(Cl)cc(NS(C)(=O)=O)c2F)n1 [encorafenib],1.58%,-2.11%,-3.65%,6.61%,-5.65%,0.929%,5%,10%,-0.54%,19%,-4.26%,
CN1CCN(c2ccc(C(=O)Nc3n[nH]c4ccc(Cc5cc(F)cc(F)c5)cc34)c(NC3CCOCC3)c2)CC1 [entrectinib],8%,3.42%,100%,98%,-4%,4.71%,-3%,86%,100%,17%,17%,
CCc1nc(C(N)=O)c(Nc2ccc(N3CCC(N4CCN(C)CC4)CC3)c(OC)c2)nc1NC1CCOCC1 [gilteritinib],23%,3%,100%,99%,-6%,2.59%,1.74%,94%,100%,21%,21%,
CCN1CCN(c2ccc(Nc3cc(N(C)C(=O)Nc4c(Cl)c(OC)cc(OC)c4Cl)ncn3)cc2)CC1 [infigratinib],2.24%,-1.46%,34%,18%,-14%,-0.24%,-4%,21%,6%,3.18%,10%,
C[C@H]1Oc2cc(cnc2N)-c2c(nn(C)c2C#N)CN(C)C(=O)c2ccc(F)cc21 [lorlatinib],1.12%,-0.664%,78%,79%,-7%,2.15%,-3.52%,-6%,,17%,6%,
C=CC(=O)N1CCC([C@@H]2CCNc3c(C(N)=O)c(-c4ccc(Oc5ccccc5)cc4)nn32)CC1 [zanubrutinib],,0.136%,2.69%,3%,-15%,-4.39%,-6.43%,,-3.55%,0.367%,-2%,"%-inhibition BLK [8, 19]: 98%"
